{"source": "patent US20090175795A1", "about": "“CHIMERIC THERAPEUTIC AGENTS” (Amprotein Corporation, priority 2005, published 2009)", "key": {"[1]": {"experiment": "effect on body weight, 7-day ip injection", "type": "in vivo, mouse", "settings": "for Body weight (X ± SD): n = 5, in g (unit assumed)", "procedure": "The effects of GLP1-Fc-leptin on body weight were studied. Mice were injected with 0.1 mg of GLP1-Fc-leptin or human IgG1 Fc fragment in the same manner described above daily for seven days. At days 1 and 7, the body weight of each […] was measured and recorded. […] The body weight was measured on days 1, 4, and 7. Effects of leptin on body weight were studied in the same manner described above. More specifically, mice were injected ip. with 0.1 mg/mouse of human recombinant leptin (R&D Systems, Cat# 398-LP) or human IgG Fc twice a day (9 am and 5 pm) for 7 days."}, "blood glucose [2]": {"test_system": "blood glucose", "experiment": "intraperitoneal glucose tolerance test (ip GTT) in mice", "type": "in vivo, mouse", "parameters": "Blood glucose (X ± SD): unit not given here", "settings": "for effect on blood glucose levels in ip GTT: P<0.05", "procedure": "(§1) First, intraperitoneal glucose tolerance test (ip GTT) was conducted to test GLP -Fc-leptin's action on glucose-dependent insulin secretion. Briefly, mouse blood glucose was measured using one-touch blood glucose strips. A blood sample was obtained from a mouse through tail bleeding. Then, 0.04, 0.1, or 0.2 mg of GLP1-Fc-leptin or control protein human IgG1 Fc fragment were injected ip. Immediately after the injections, 0.2 ml of saturated glucose water solution was injected ip into the mouse. One and two hours later, another blood sample was collected in the same manner for glucose measurement."}, "blood glucose [3]": {"test_system": "blood glucose", "experiment": "IP glucose tolerance test repeated at day-1 and day-2 after one injection (long-term effect)", "type": "in vivo, mouse", "settings": "for Blood glucose (X ± SD): one injection 0.2 mg, n = 5", "procedure": "as §1, with “measurement. […] The results are summarized in Tables 1-4 below: The above experiment was repeated with GLP1-Fc-leptin (0.2 mg) at day-1 before the glucose tolerance test. A IP glucose tolerance test was conducted twice at day-1 and day-2 respectively.” for “measurement.”"}, "blood glucose [4]": {"test_system": "blood glucose", "experiment": "everyday blood glucose level during the 7-day injection period", "type": "in vivo, mouse", "settings": "0.1 mg daily; for Glucose: one hour after injection, n = 5", "procedure": "In the above experiments, during the 7-day period, blood glucose levels of each mouse were measured and recorded on each day one hour after injection of GLP1-Fc-leptin (0.1 mg) or IgG1 Fc fragment everyday in the morning."}, "blood glucose [5]": {"test_system": "blood glucose", "experiment": "GTT assay in rats", "type": "in vivo, rat", "settings": "small numbers", "procedure": "(§2) Similarly GTT assays were also conducted in rats and rabbits in small numbers. All the results support the inhibition of GLP1-Fc-leptin on blood glucose level."}, "blood glucose [6]": {"test_system": "blood glucose", "experiment": "GTT assay in rabbits", "type": "in vivo, rabbit", "settings": "small numbers", "procedure": "as §2"}}, "data": [{"substance": "Human leptin: human recombinant leptin (R&D Systems, Cat# 398-LP)", "values": [{"measurement": "weight loss relative to GLP1-Fc-Leptin", "setting": "[1]; 0.1 mg/mouse ip twice a day for 7 days", "value": "less than half of the weight loss that GLP1-Fc-Leptin induced"}, {"measurement": "Body weight (X ± SD)", "setting": "[1]; leptin study, 0.1 mg/mouse ip twice a day for 7 days, day 1", "value": "20.9 ± 2.0"}, {"measurement": "Body weight (X ± SD)", "setting": "[1]; leptin study, 0.1 mg/mouse ip twice a day for 7 days, day 4", "value": "20.7 ± 2.3"}, {"measurement": "Body weight (X ± SD)", "setting": "[1]; leptin study, 0.1 mg/mouse ip twice a day for 7 days, day 7", "value": "20.1 ± 2.1"}, {"measurement": "weight loss when used alone", "setting": "[1]; our animal model, pilot experiments, used alone", "value": "did not induce significant weight loss"}]}, {"substance": "GLP1-Fc-leptin: fusion protein GLP-1-3xGly-IgG1 Fc-leptin (SEQ ID NO:5), expressed in CHO cells", "values": [{"measurement": "Blood glucose (X ± SD)", "setting": "blood glucose [2]; 0.04 mg ip, 1 hour after IP glucose injection, n = 5", "value": "275.8 ± 154.0"}, {"measurement": "Blood glucose (X ± SD)", "setting": "blood glucose [2]; 0.04 mg ip, 2 hour after IP glucose injection, n = 5", "value": "98.0 ± 22.7"}, {"measurement": "Blood glucose (X ± SD)", "setting": "blood glucose [2]; 0.04 mg ip, before IP glucose injection, n = 5", "value": "98.8 ± 29.2"}, {"measurement": "Blood glucose (X ± SD)", "setting": "blood glucose [2]; 0.1 mg ip, 1 hour after IP glucose injection, n = 4", "value": "108.8 ± 44.0"}, {"measurement": "Blood glucose (X ± SD)", "setting": "blood glucose [2]; 0.1 mg ip, 2 hour after IP glucose injection, n = 4", "value": "83.0 ± 21.6"}, {"measurement": "Blood glucose (X ± SD)", "setting": "blood glucose [2]; 0.1 mg ip, before IP glucose injection, n = 4", "value": "67.3 ± 32.1"}, {"measurement": "effect on blood glucose levels in ip GTT", "setting": "blood glucose [2]; 0.1 mg", "value": "significantly inhibited"}, {"measurement": "Blood glucose (X ± SD)", "setting": "blood glucose [2]; 0.2 mg ip, 1 hour after IP glucose injection, n = 5", "value": "113.0 ± 16.2"}, {"measurement": "Blood glucose (X ± SD)", "setting": "blood glucose [2]; 0.2 mg ip, 2 hour after IP glucose injection, n = 5", "value": "82.0 ± 6.2"}, {"measurement": "Blood glucose (X ± SD)", "setting": "blood glucose [2]; 0.2 mg ip, before IP glucose injection, n = 5", "value": "84.4 ± 20.5"}, {"measurement": "effect on blood glucose levels in ip GTT", "setting": "blood glucose [2]; 0.2 mg", "value": "significantly inhibited"}, {"measurement": "Blood glucose (X ± SD)", "setting": "blood glucose [3]; Day-1 GTT, 1 hour after IP glucose injection", "value": "113.0 ± 16.2"}, {"measurement": "Blood glucose (X ± SD)", "setting": "blood glucose [3]; Day-1 GTT, 2 hour after IP glucose injection", "value": "82.0 ± 6.2"}, {"measurement": "Blood glucose (X ± SD)", "setting": "blood glucose [3]; Day-1 GTT, before IP glucose injection", "value": "84.4 ± 20.5"}, {"measurement": "Blood glucose (X ± SD)", "setting": "blood glucose [3]; Day-2 GTT, 1 hour after IP glucose injection", "value": "106.2 ± 25.7"}, {"measurement": "Blood glucose (X ± SD)", "setting": "blood glucose [3]; Day-2 GTT, 2 hour after IP glucose injection", "value": "95.8 ± 21.1"}, {"measurement": "Blood glucose (X ± SD)", "setting": "blood glucose [3]; Day-2 GTT, before IP glucose injection", "value": "92.6 ± 25.3"}, {"measurement": "duration of inhibition of blood glucose level", "setting": "blood glucose [3]; one injection of 0.2 mg", "value": "at least two"}, {"measurement": "body weight lost", "setting": "[1]; 0.1 mg daily for seven days, at day 7, p<0.05", "value": 11.3, "unit": "%"}, {"measurement": "Body weight (X ± SD)", "setting": "[1]; 0.1 mg ip daily for seven days, day 1", "value": "24.7 ± 1.3"}, {"measurement": "Body weight (X ± SD)", "setting": "[1]; 0.1 mg ip daily for seven days, day 4", "value": "23.7 ± 2.2"}, {"measurement": "Body weight (X ± SD)", "setting": "[1]; 0.1 mg ip daily for seven days, day 7", "value": "21.9 ± 1.4"}, {"measurement": "everyday blood glucose levels versus IgG1 Fc fragment", "setting": "blood glucose [4]; 7-day period", "value": "lower blood glucose levels"}, {"measurement": "Glucose", "setting": "blood glucose [4]; day 1", "value": "98.0 ± 13.2", "unit": "mg/dL"}, {"measurement": "Glucose", "setting": "blood glucose [4]; day 2", "value": "119.0 ± 25.8", "unit": "mg/dL"}, {"measurement": "Glucose", "setting": "blood glucose [4]; day 3", "value": "91.4 ± 44.6", "unit": "mg/dL"}, {"measurement": "Glucose", "setting": "blood glucose [4]; day 4", "value": "116.0 ± 34.3", "unit": "mg/dL"}, {"measurement": "Glucose", "setting": "blood glucose [4]; day 5", "value": "95.6 ± 33.9", "unit": "mg/dL"}, {"measurement": "Glucose", "setting": "blood glucose [4]; day 6", "value": "102.3 ± 25.7", "unit": "mg/dL"}, {"measurement": "Glucose", "setting": "blood glucose [4]; day 7", "value": "160.4 ± 18.6", "unit": "mg/dL"}, {"measurement": "effect on blood glucose level in GTT", "setting": "blood glucose [5]", "value": "inhibition"}, {"measurement": "effect on blood glucose level in GTT", "setting": "blood glucose [6]", "value": "inhibition"}]}]}
